Data from patent US6652860B1, “Peptide, apoEp 1.B, compositions and uses thereof” (University of Western Ontario, priority 1997, dated 2003).
Where no end group is shown, it is not given here.

Experiments:
PU5-1.8 cells [1] = assay: DC-like surface marker expression on PU5-1.8 cells (FACS); format: cell-based, murine; conditions: 100 μg/ml, 24 hr, 10^5 PU5-1.8 cells
Method: (§1) 1×10^6 cells were washed with ice cold PBS and resuspended in 25 μl PBS and incubated with 10 μl normal mouse serum and fluorochrome conjugated anti-mouse D11a, CD11b, CD14, MHC class II, CD95, CD62L, CD62E, B7-1, B7-2 and ICAM-1 Pharmingen, Mississauga, Canada) monoclonal antibodies (mAb's) for 45 minutes on ice. endritic cell markers DEC-205, 33D1, CD11c (N418) unconjugated antibodies were imilarly treated, however, following primary antibody incubation,cells were washed 3 times and a secondary goat anti-rat (for 33D1 and DEC-205 ab's) and goat anti-hamster (for CD11c ab) fluorochrome-conjugated antibody was then added for 45 min on ice. Cells were then washed three times. All samples were resuspended in 300 μl PBS and the fluorescence of stained cells was analyzed on a FACScan flow cytometer (Becton Dickinson, Mountain View, Calif.) and data collected was analyzed using Lysis II (Becton-Dickinson) software.
(§2) Morphologically apoEp1.B-treated cells appeared DC-like. This was confirmed this by FACS analysis. Unprimed BALB/c splenocytes and PU5-1.8 cells were incubated for 24 hr with 100 μg/ml apoEp1.B or control peptide apoEp1.D and then stained for FACS analysis.
To assess whether apoEp1.B-induced phenotypic changes are dose-dependent, 10^5 PU5-1.8 cells were incubated for 20 hr with 0 (medium), 1, 10 or 100 μg/ml apoEp1.B in 24-well plates and were then stained for FACS analysis. […]

PU5-1.8 cells [2] = assay: DC marker changes (B7-1 FACS) of PU5-1.8 cells incubated with modified apoEp1.B peptides; format: cell-based, murine; conditions: 20 hours
Method: Murine monocytic PU5-1.8 and J77A1.4 transformed cell lines, human monoblastic leukemia THP-1 and U-937, and murine B cell lymphoma A20 cells were cultured in RPMI 1640 medium (Gibco Laboratories, Grand Island, N.Y.) containing […] 2ME, 10 mM HEPES, 2 mM glutamine, 5.0 IU/ml penicillin streptomycin (Gibco) and 10%. heat inactivated Fetal Bovine Serum (FBS) (Hyclone Laboratories Inc., Logan, Utah)(cRPMI).
as §1, with “software. […]” for “software.”

immune cells = assay: Activation and differentiation of immune cells; format: cell-based
splenocytes = assay: Surface marker expression on unprimed splenocytes (FACS); format: cell-based, mice; conditions: splenocytes (data not shown)
Method: as §1, §2
There were no changes in the expression of CD16/32 at any time.
Unprimed B6 and NOD splenocytes were incubated with 100 μg/ml apoEp1.B or apoEp1.D to determine whether apoEp1.B was strain-specific. […]

[3] = tested on: BALB/c naive T cells co-cultured with NOD splenocytes; assay: Mixed leukocyte reaction, T cell allostimulatory activity of treated APC's; format: cell-based, mice; conditions: particularly at 4×10^3 APC's per well
Method: Primary allogeneic MLR was set up with NOD splenocytes as stimulators and nylon wool enriched BALB/c naive T cells as responders. Stimulator cells were pre-incubated for 3 days with different combinations of apoEp1.B, GM-CSF, and PU5-1.8 supernatant containing TNF. Stimulator cells were then treated with mitomycin C (50 μg/ml, 20 min at 37° C.; Sigma) and co-cultured with 4×10^4 responder for 3 days at which time cells were pulsed with 50 μl [^3H]-TdR (0.5 μCi/well) for 24 hr. Cells were harvested (Tomtec) and [^3H]-TdR incorporation was measured on a Microbeta Liquid Scintillation Counter (Wallac). Each bar represents the mean cpm from triplicate cultures.
To measure the T cell allostimulatory or inhibitory ability of these DC's, 4×10^4 enriched BALB/c naive T cells were co-cultured with 40, 400, 4000 and 40,000 mitomycin C-treated NOD splenocytes which had been incubated with various stimualants for 3 d. T cell proliferation was measured following 3 days of co-culture by [^3H]-TdR incorporation. Bars represent the mean of triplicate wells (cpm+/−S.D.). * and ** represent p<0.05 and p<0.001, respectively in 2-way ANOVA's compared to medium alone (nil) controls. […] Upon combining responder T cells with APC, various exogenous factors were added, including 20 μg/ml Con A and 5 μg/ml apoEp1.B. Very little proliferation was detected in wells containing T cells alone or APC alone.

[4] = tested on: iliofemoral artery of the rat; assay: Balloon angioplasty injury model, plaque development in iliofemoral artery; format: in vivo; conditions: treated rats
Method: To investigate the role of apoEp1.B peptide in inflammation, particularly in response to arterial injury, a balloon angioplasty injury model which has been well characterized by Dr. Alex Lucas (Lucas et al. 1996 Circ. 94:2898-900) was used. 300 μg/ml of apoEp1 or apoEp1.B peptide were infused intra-arterially immediately prior to angioplasty at the site of injury in the iliofemoral artery of the rat. Positive control SERP-1 and negative control saline alone were also used. The rats were monitored carefully and euthanized 6 weeks after treatment and iliofemoral arteries were assessed for plaque development by histochemistry.

[5] = tested on: Unprimed splenocytes, enriched spleen monocytes and monocytic PU5-1.8 and J77A4.1 cell lines; assay: Dendritic-like cell morphology in vitro; format: cell-based, BALB/c mice; conditions: after 2 hr, optimally at 100 μg/ml
Method: Unprimed splenocytes, enriched spleen monocytes and monocytic PU5-1.8 and J77A4.1 cell lines from BALB/c mice were incubated with 0, 1, 10, or 100 μg/ml apoEp1.B (239-252) or negative control apoEp1.D (236-249) peptide to assess activity. […] After 24 hr, morphologically these cells appeared less rounded, more granular.

Question: With “AQQIRLQAEAFQAR (listed as Homo sapiens) [human apoEp1.B]” as the substance, how does the “cell clustering and marker increase compared to murine apoEp1.B” value (PU5-1.8 cells [1]) read?
Answer: The value was “to a lesser degree”.

Question: What about the “effect on surface marker changes compared to apoEp1.B” value (PU5-1.8 cells [2]; 100 μg/ml, PU5-1.8 cells) of the same substance?
Answer: The value was “slightly reduced effect”.

Question: What does the source list for “EEQ TQQ IRL QAE IFQ AR (EEQTQQIRLQAEIFQAR; Murine) [apoEp1]”?
Answer: induces activation and differentiation of immune cells (immune cells): does not induce DC's; CD40 expression (splenocytes): increase in CD40; L-selectin expression (splenocytes): decrease in L-selectin; DC Marker Changes (PU5-1.8 cells [2]; Table 1 elongations and truncations, 100 μg/ml peptide, 10^5 PU5-1.8 cells, B7-1 stain, FACS): slight

Question: Which “allostimulation after APC pre-incubation” value [3] does the source give for “GM-CSF: cytokine used to pre-incubate stimulator cells in MLR” here?
Answer: Its value is “dramatic increase in allostimulation”.

Question: “TQQIRLQAEIFQAR [apoEp1.B, TQQIRLQAEIFQAR]” was tested. Which adverse effects [4] did it give?
Answer: Its adverse effects is “No adverse effects were observed”.

Question: Which “induces activation and differentiation of immune cells” value (immune cells) does the source give for “apoE: Human plasma VLDL purified apoE (Calbiochem) was used as native apoE” here?
Answer: The value was “not”.

Question: With “apoEp1.D: negative control apoEp1.D (236-249) peptide (VAEVRAKLEEQAQQ; UniProt P02649 254-267, looked up, fragment)” as the substance, how does the “detachment from plastic plates and aggregation in suspension” value [5] read?
Answer: Its value is “not”.
